# Data reported in publication PMC6219668 (Oncotarget, 2018).
# Test system: panel of nearly 500 cancer cell lines
# Assay: Cancer Cell Line Encyclopedia profiling, 3-day CellTiter-Glo
# Assay type: cell-based
# Set-up: Amax: unit not given here
compound,measurement,setting,value
"CN(C)C(=O)c1cc2cnc(Nc3ccc(N4CCNCC4)cn3)nc2n1C1CCCC1 [Ribociclib, 7-cyclopentyl-2-(5-piperazin-1-yl-pyridin-2-ylamino)-7H-pyrrolo[2,3-d]pyrimidine-6-carboxylic acid dimethylamide]",EC50,"Homo sapiens, TCC-SUP",> 8 µM
same,IC50,"Homo sapiens, TCC-SUP",> 8 µM
same,EC50,"Homo sapiens, TE-11",2.09 µM
same,IC50,"Homo sapiens, TE-11",> 8 µM
same,EC50,"Homo sapiens, TE-15",1.23 µM
same,IC50,"Homo sapiens, TE-15",> 8 µM
same,EC50,"Homo sapiens, TOV21G",1.23 µM
same,IC50,"Homo sapiens, TOV21G",> 8 µM
same,EC50,"Homo sapiens, TOV112D",0.995 µM
same,IC50,"Homo sapiens, TOV112D",> 8 µM
same,EC50,"Homo sapiens, Toledo",1.52 µM
same,IC50,"Homo sapiens, Toledo",> 8 µM
same,EC50,"Homo sapiens, U2OS",2.09 µM
same,IC50,"Homo sapiens, U2OS",> 8 µM
same,EC50,"Homo sapiens, U-87 MG",> 8 µM
same,IC50,"Homo sapiens, U-87 MG",> 8 µM
same,EC50,"Homo sapiens, U-118-MG",2.68 µM
same,IC50,"Homo sapiens, U-118-MG",> 8 µM
same,EC50,"Homo sapiens, U-937",1.74 µM
same,IC50,"Homo sapiens, U-937",3.52 µM
same,EC50,"Homo sapiens, UACC-62",1.62 µM
same,IC50,"Homo sapiens, UACC-62",> 8 µM
same,EC50,"Homo sapiens, UACC-257",0.577 µM
same,IC50,"Homo sapiens, UACC-257",> 8 µM
same,EC50,"Homo sapiens, UACC-812",> 8 µM
same,IC50,"Homo sapiens, UACC-812",> 8 µM
same,EC50,"Homo sapiens, UMUC3",> 8 µM
same,IC50,"Homo sapiens, UMUC3",> 8 µM
same,EC50,"Homo sapiens, WM 266-4",0.946 µM
same,IC50,"Homo sapiens, WM 266-4",> 8 µM
same,EC50,"Homo sapiens, WM793",> 8 µM
same,IC50,"Homo sapiens, WM793",> 8 µM
same,EC50,"Homo sapiens, WM-115",> 8 µM
same,IC50,"Homo sapiens, WM-115",> 8 µM
same,EC50,"Homo sapiens, YKG-1",> 8 µM
same,IC50,"Homo sapiens, YKG-1",> 8 µM
same,EC50,"Homo sapiens, ZR-75-1",> 8 µM
same,IC50,"Homo sapiens, ZR-75-1",> 8 µM
same,EC50,"Homo sapiens, ZR-75-30",> 8 µM
same,IC50,"Homo sapiens, ZR-75-30",> 8 µM
same,EC50,Hs766T,> 8 µM
same,IC50,Hs766T,> 8 µM
same,EC50,IGR-39,> 8 µM
same,IC50,IGR-39,> 8 µM
same,EC50,JHH7,1.83 µM
same,IC50,JHH7,> 8 µM
same,EC50,JHH-2,7.93 µM
same,IC50,JHH-2,> 8 µM
same,EC50,JHH-4,2.24 µM
same,IC50,JHH-4,> 8 µM
same,EC50,JMSU-1,> 8 µM
same,IC50,JMSU-1,> 8 µM
same,EC50,KE-97,3.81 µM
same,IC50,KE-97,4.53 µM
same,EC50,KHM-1B,0.34 µM
same,IC50,KHM-1B,> 8 µM
same,IC50,KMM-1,4.23 µM
same,EC50,KMRC-1,0.907 µM
same,IC50,KMRC-1,> 8 µM
same,EC50,KMS-26,3.37 µM
same,IC50,KMS-26,2.53 µM
same,EC50,Karpas-620,0.0773 µM
same,IC50,Karpas-620,> 8 µM
same,EC50,Kelly,6.64 µM
same,IC50,Kelly,6.64 µM
same,EC50,LOU-NH91,> 8 µM
same,IC50,LOU-NH91,> 8 µM
same,EC50,LUDLU-1,0.0154 µM
same,IC50,LUDLU-1,> 8 µM
same,EC50,Mono-Mac-1,0.704 µM
same,IC50,Mono-Mac-1,3.22 µM
same,EC50,NCI-H322,> 8 µM
same,IC50,NCI-H322,> 8 µM
same,EC50,NCI-H1339,> 8 µM
same,IC50,NCI-H1339,> 8 µM
same,EC50,NCI-H1568,> 8 µM
same,IC50,NCI-H1568,> 8 µM
same,EC50,NCI-H1915,> 8 µM
same,IC50,NCI-H1915,> 8 µM
same,EC50,NCI-H2023,0.0698 µM
same,IC50,NCI-H2023,> 8 µM
same,EC50,NCI-H2172,> 8 µM
same,IC50,NCI-H2172,> 8 µM
same,EC50,OCUM1,> 8 µM
same,IC50,OCUM1,> 8 µM
same,EC50,OE21,> 8 µM
same,IC50,OE21,4.52 µM
same,EC50,ONCO-DG-1,> 8 µM
same,IC50,ONCO-DG-1,> 8 µM
same,EC50,PK-59,> 8 µM
same,IC50,PK-59,> 8 µM
same,EC50,PL45,0.0975 µM
same,IC50,PL45,> 8 µM
same,EC50,PaTu 8902,> 8 µM
same,IC50,PaTu 8902,> 8 µM
same,EC50,QGP-1,0.309 µM
same,IC50,QGP-1,2.33 µM
same,EC50,SH-10-TC,> 8 µM
same,IC50,SH-10-TC,> 8 µM
same,EC50,SUIT-2,1.62 µM
same,IC50,SUIT-2,7.97 µM
same,EC50,SW579,0.929 µM
same,IC50,SW579,> 8 µM
same,EC50,SW1271,2.54 µM
same,IC50,SW1271,> 8 µM
same,EC50,TC-71,> 8 µM
same,IC50,TC-71,> 8 µM
same,EC50,WM983B,0.114 µM
same,IC50,WM983B,0.327 µM
same,EC50,WM-1799,0.202 µM
same,IC50,WM-1799,> 8 µM
same,Amax,a172 (central_nervous_system),-18.6367
same,Amax,a204 (soft_tissue),-24.3309
same,Amax,a253 (salivary_gland),9.763
same,Amax,a2058 (skin),0.435
same,Amax,g402 (soft_tissue),-59.1579
same,Amax,gamg (central_nervous_system),-4.349
same,Amax,gb1 (central_nervous_system),-5.547
same,Amax,gciy (stomach),-6.8217
same,Amax,gct (soft_tissue),-35.032
same,Amax,gi1 (central_nervous_system),1.537
same,Amax,glc82 (lung),6.841
same,Amax,gms10 (central_nervous_system),6.4331
same,Amax,granta519 (haematopoietic_and_lymphoid_tissue),-7.882
same,Amax,h4 (central_nervous_system),-7.315
same,Amax,hara (lung),-39.5316
same,Amax,hcc15 (lung),11.5352
same,Amax,hcc44 (lung),-21.2383
same,Amax,hcc56 (large_intestine),-7.243
same,Amax,hcc70 (breast),9.331
same,Amax,hcc78 (lung),8.5798
same,Amax,hcc827 (lung),5.053
same,Amax,hcc1187 (breast),-1.8256
same,Amax,hcc1395 (breast),4.555
same,Amax,hcc1569 (breast),-4.171
same,Amax,hcc1806 (breast),-2.407
same,Amax,hcc1954 (breast),5.4786
same,Amax,hcc2935 (lung),3.035
same,Amax,hcc4006 (lung),-45.676
same,Amax,hct15 (large_intestine),-18.4329
same,Amax,hct116 (large_intestine),-41.8056
same,Amax,hdmyz (haematopoietic_and_lymphoid_tissue),-70.2074
same,Amax,hdqp1 (breast),-11.6831
same,Amax,hec1a (endometrium),-0.2935
same,Amax,hec1b (endometrium),-44.265
same,Amax,hec6 (endometrium),9.745
same,Amax,hec59 (endometrium),-17.0499
same,Amax,hec151 (endometrium),0.04545
same,Amax,hec251 (endometrium),3.202
same,Amax,hec265 (endometrium),6.223
same,Amax,hel9217 (haematopoietic_and_lymphoid_tissue),0.4869
same,Amax,hep3b217 (liver),2.738
same,Amax,hepg2 (liver),-37.2895
same,Amax,heya8 (ovary),-44.7632
same,Amax,hgc27 (stomach),-65.8757
same,Amax,hh (haematopoietic_and_lymphoid_tissue),-3.613
same,Amax,hle (liver),-18.5726
same,Amax,hlf (liver),6.292
same,Amax,hmc18 (breast),-31.7315
same,Amax,hmcb (skin),-41.1129
same,Amax,hos (bone),-0.8851
same,Amax,hpac (pancreas),-55.1912
same,Amax,hpafii (pancreas),-3.9084
same,Amax,hs229t (lung),-28.1577
same,Amax,hs294t (skin),-32.1941
same,Amax,hs578t (breast),-21.2687
same,Amax,hs695t (skin),-3.506
same,Amax,hs729 (soft_tissue),10.8537
same,Amax,hs739t (breast),-26.62
same,Amax,hs746t (stomach),-37.6649
same,Amax,hs766t (pancreas),-32.0513
same,Amax,hs840t (upper_aerodigestive_tract),-29.2379
same,Amax,hs852t (skin),-6.059
same,Amax,hs936t (skin),-38.0651
same,Amax,hs939t (skin),-14.4612
same,Amax,hsc2 (upper_aerodigestive_tract),0.4805
same,Amax,ht29 (large_intestine),-56.1634
same,Amax,ht144 (skin),-18.5925
same,Amax,ht1080 (soft_tissue),-36.8044
same,Amax,ht1197 (urinary_tract),-10.59
same,Amax,ht1376 (urinary_tract),7.547
same,Amax,ht (haematopoietic_and_lymphoid_tissue),8.223
same,Amax,hucct1 (biliary_tract),1.7282
same,Amax,huh1 (liver),-43.6531
same,Amax,hupt3 (pancreas),-32.6303
same,Amax,hupt4 (pancreas),-52.4819
same,Amax,hut78 (haematopoietic_and_lymphoid_tissue),8.299
same,Amax,ialm (lung),0.7254
same,Amax,igr37 (skin),-22.1572
same,Amax,igr39 (skin),0.9211
same,Amax,igrov1 (ovary),-1.9772
same,Amax,im95 (stomach),-0.7889
same,Amax,imr32 (autonomic_ganglia),-55.0108
same,Amax,ipc298 (skin),-16.0715
same,Amax,ishikawaheraklio02er (endometrium),0.9691
same,Amax,istmes1 (pleura),-35.2757
same,Amax,istmes2 (pleura),-42.1214
same,Amax,j82 (urinary_tract),-0.8954
same,Amax,jhh2 (liver),-16.2272
same,Amax,jhh4 (liver),-26.3135
same,Amax,jhh5 (liver),-74.5916
same,Amax,jhh6 (liver),4.949
same,Amax,jhh7 (liver),-42.8596
same,Amax,jhos2 (ovary),12.8505
same,Amax,jhos4 (ovary),4.354
same,Amax,jhuem2 (endometrium),-27.6126
